Assay results taken from patent US20110104055A1, “SUBSTITUTED N-ARYL BENZAMIDES AND RELATED COMPOUNDS FOR TREATMENT OF AMYLOID DISEASES AND SYNUCLEINOPATHIES” (priority 2002, published 2011).

Tests used:
Assay type in all cases: biochemical
α-synuclein fibrils [1] = target: T1, α-synuclein fibrils (Homo sapiens, UniProt P37840); experiment: Thioflavin T fluorometry, disruption of pre-formed α-synuclein fibrils (Example 12); settings: 3 days; for % Inhibition α-synuclein (result ± S.D.), Thioflavin T fluorometry: 30 μg pre-fibrillized α-synuclein, 37° C.
T1 construct: purchased rPeptide
Protocol: In this assay, Thioflavin T binds specifically to α-synuclein fibrils, and this binding produces a fluorescence enhancement at 485 nm that is directly proportional to the amount of α-synuclein fibrils present. The higher the fluorescence, the greater the amount of α-synuclein fibrils present (Naki et al, Lab. Invest. 65:104-110, 1991; Levine III, Protein Sci. 2:404-410, 1993; Amyloid: Int. J. Exp. Clin. Invest. 2:1-6, 1995).
In this study, 30 μg of pre-fibrillized α-synuclein (rPeptide) was incubated at 37° C. for 3 days either alone or in the presence of compounds DC-0051-F1, F2, F3, F4, F5, F6 or EDTA (at α-synuclein:test compound weight ratios of 1:1, 1:0.1, 1:0.01 or 1:0.001). Following 3-days of co-incubation, 50 μl of each incubation mixture was transferred into a 96-well microtiter plate containing 150 μl of distilled water and 50 μl of a Thioflavin T solution (i.e. […] Thioflavin T in 250 mM phosphate buffer, pH 6.8). The fluorescence was read at 485 nm (444 nm excitation wavelength) using an ELISA plate fluorometer after subtraction with buffer alone or compound alone, as blank.

IAPP fibrils = target: T2, IAPP fibrils (Homo sapiens, UniProt P10997); experiment: Thioflavin T fluorometry, disruption of IAPP fibrils; settings: 3 days; for % inhibition of IAPP (Thioflavin T fluorometry): 25 μM IAPP, 37° C.
T2 construct: purchased Bachem Inc
T2 sequence (P10997 34-70 limits assumed): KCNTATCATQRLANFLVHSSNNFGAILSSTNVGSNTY
Protocol: The biological activity of the compounds provided herein as disruptors/inhibitors of Alzheimer's disease β-amyloid protein (Aβ) fibrils, type 2 diabetes IAPP fibrils and Parkinson's disease NAC fibrils was assessed by determining the efficacy of the compounds to cause a disassembly/disruption of pre-formed amyloid fibrils of Alzheimer's disease (i.e. consisting of Aβ 1-42 fibrils), IAPP fibrils and Parkinson's disease NAC fibrils. […] In this assay Thioflavin T binds specifically to fibrillar amyloid, and this binding produces a fluorescence enhancement at 485 nm that is directly proportional to the amount of fibrils present. The higher the fluorescence, the greater the amount of fibrils present (Naki et al, Lab. Invest. 65:104-110, 1991; Levine III, Protein Sci. 2:404-410, 1993; Amyloid: Int. J. Exp. Clin. Invest. 2:1-6, 1995). The disruption of Aβ 1-42, even in its monomeric form, was confirmed by a study involving the use of SDS-PAGE and Western blotting methods.
(§1) In this assay Thioflavin T binds specifically to fibrillar amyloid, and this binding produces a fluorescence enhancement at 485 nm that is directly proportional to the amount of amyloid fibrils formed. The higher the fluorescence, the greater the amount of amyloid fibrils formed (Naki et al., Lab. Invest. 65:104-110, 1991; Levine III, Protein Sci. 2:404-410, 1993; Amyloid: Int. J. Exp. Clin. Invest. 2:1-6, 1995).
In this study, 25 μM of IAPP (Bachem Inc) was incubated at 37° C. for 3 days, either alone, or in the presence of one of the compounds or EDTA (at IAPP:test compound weight ratios of 1:1, 1:0.1, 1:0.01 or 1:0.001). Following 3 days of co-incubation, 50 μl of each incubation mixture was transferred into a 96-well microtiter plate containing 150 μl of distilled water and 50 μl of a Thioflavin T solution (i.e. […] Thioflavin T in 250 mM phosphate buffer, pH 6.8). The fluorescence was read at 485 nm (444 nm excitation wavelength) using an ELISA plate fluorometer after subtraction with buffer alone or compound alone, as blank).

α-synuclein fibrils [2] = target: T1, α-synuclein fibrils; experiment: Congo red binding assay, α-synuclein fibrils (Example 12); settings: 3-day incubation
Protocol: In the Congo red binding assay, the ability of a given test compound to alter amyloid (in this case, α-synuclein) binding to Congo red is quantified. In this assay, α-synuclein and test compounds were incubated for 3 days and then vacuum filtered through a 0.2 μm filter. The amount of α-synuclein retained in the filter was then quantitated following staining of the filter with Congo red. After appropriate washing of the filter, any lowering of the Congo red color on the filter in the presence of the test compound (compared to the Congo red staining of the amyloid protein in the absence of the test compound) was indicative of the test compound's ability to diminish/alter the amount of aggregated and congophilic α-synuclein.
In one study, the ability of α-synuclein fibrils to bind Congo red in the absence or presence of increasing amounts of compounds DC-0051-F1, F2, F3, F4, F5, F6 and EDTA (at α-synuclein:test compound weight ratios of 1:1, 1:0.1, 1:0.01 or 1:0.001) was determined.

Aβ 1-42 fibrils = target: T3, Aβ 1-42 fibrils (Homo sapiens, UniProt P05067); experiment: Thioflavin T fluorometry, disruption of pre-formed Aβ 1-42 fibrils (Example 7); settings: for % inhibition of Aβ (Thioflavin T fluorometry): 25 μM pre-fibrillized Aβ 1-42, 37° C., 3 days (Table 3)
T3 construct: purchased Bachem Inc
Protocol: as §1
Following 3 days of co-incubation, 50 μl of each incubation mixture was transferred into a 96-well microtiter plate containing 150 μl of distilled water and 50 μl of a Thioflavin T solution (i.e. 500 mM Thioflavin T in 250 mM phosphate buffer, pH 6.8). The fluorescence was read at 485 nm (444 nm excitation wavelength) using an ELISA plate fluorometer after subtraction with buffer alone or compound alone, as blank).

[3] = Thioflavin T fluorometry, all concentrations tested
[4] = α-synuclein:test compound wt/wt ratio 1:0.001
[5] = α-synuclein:test compound wt/wt ratio 1:0.01
[6] = α-synuclein:test compound wt/wt ratio 1:0.1
[7] = α-synuclein:test compound wt/wt ratio 1:1

T3 sequence (P05067 672-713): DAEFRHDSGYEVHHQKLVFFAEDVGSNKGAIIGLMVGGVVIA

O=C(O)CN(CCN(CC(=O)O)CC(=O)O)CC(=O)O [EDTA]
disruption/disassembly of pre-formed α-synuclein fibrils, in words (α-synuclein fibrils [1]; [3]): no significant inhibition
% Inhibition α-synuclein (result ± S.D.), Thioflavin T fluorometry (α-synuclein fibrils [1]; [4]): 0.0 ± 4.11%
% Inhibition α-synuclein (result ± S.D.), Thioflavin T fluorometry (α-synuclein fibrils [1]; [5]): 0.0 ± 17.06%
% Inhibition α-synuclein (result ± S.D.), Thioflavin T fluorometry (α-synuclein fibrils [1]; [6]): 0.0 ± 6.97%
% Inhibition α-synuclein (result ± S.D.), Thioflavin T fluorometry (α-synuclein fibrils [1]; [7]): 0.0 ± 2.03%
% inhibition of IAPP (Thioflavin T fluorometry) (IAPP fibrils; IAPP:test compound wt/wt ratio 1:0.001): 0.0 +/− 0.56%
% inhibition of IAPP (Thioflavin T fluorometry) (IAPP fibrils; IAPP:test compound wt/wt ratio 1:0.01): 4. +/− 3.152%
% inhibition of IAPP (Thioflavin T fluorometry) (IAPP fibrils; IAPP:test compound wt/wt ratio 1:0.1): 1.6 +/− 5.86%
% inhibition of IAPP (Thioflavin T fluorometry) (IAPP fibrils; IAPP:test compound wt/wt ratio 1:1): 0.0 ± 1.31%
disruption/disassembly of preformed IAPP fibrils, in words (IAPP fibrils; [3]): no significant inhibition/disruption
inhibition of α-synuclein fibril binding to Congo red, in words (α-synuclein fibrils [2]; all concentrations tested): no significant inhibition
% Inhibition α-synuclein (result ± S.D.), Congo red binding (α-synuclein fibrils [2]; [4]): 3.3 ± 1.85%
% Inhibition α-synuclein (result ± S.D.), Congo red binding (α-synuclein fibrils [2]; [5]): 2.9 ± 5.0%
% Inhibition α-synuclein (result ± S.D.), Congo red binding (α-synuclein fibrils [2]; [6]): 2.2 ± 5.16%
% Inhibition α-synuclein (result ± S.D.), Congo red binding (α-synuclein fibrils [2]; [7]): 0.0 ± 5.50%
% inhibition of Aβ (Thioflavin T fluorometry) (Aβ 1-42 fibrils; Aβ:test compound wt/wt ratio 1:0.001): 10.3 +/− 10.81%
% inhibition of Aβ (Thioflavin T fluorometry) (Aβ 1-42 fibrils; Aβ:test compound wt/wt ratio 1:0.01): 0.0 +/− 2.26%
% inhibition of Aβ (Thioflavin T fluorometry) (Aβ 1-42 fibrils; Aβ:test compound wt/wt ratio 1:0.1): 0.0 +/− 1.18%
% inhibition of Aβ (Thioflavin T fluorometry) (Aβ 1-42 fibrils; Aβ:test compound wt/wt ratio 1:1): 5.0 +/− 11.39%
disruption/disassembly of preformed Aβ 1-42 fibrils, in words (Aβ 1-42 fibrils; Thioflavin T fluorometry, all concentrations tested, 3 days): no significant inhibition/disruption
